# According to patent US11773062B2, “Deuterated compounds” (priority 2021, dated 2023):
# Columns and labels:
# [1] = In vitro mouse hepatocytic intrinsic clearance; conditions: male, CD-1, mouse, hepatocytes
# [2] = Human liver mitochondrial fraction intrinsic clearance of SPL026, SPL028i, SPL028iii, SPL028viii; type: in vitro ADME; conditions: for Intrinsic Clearance / half-life: 0.5 mg/mL human liver mitochondrial fraction (Table 10)
# Text: (§1) Human Liver Mitochondrial (HLMt) fractions contain high quantities of MAO enzymes and therefore, provide a useful tool to measure the clearance of MAO substrates.
# [3] = tested on: mouse (male CD-1) hepatocytes; test: In vitro mouse hepatocytic intrinsic clearance; conditions: mouse CD-1 hepatocytes 0.367 million cells/mL, 5 μM (Table 8)
# [4] = tested on: human (mixed gender) hepatocytes; test: In vitro intrinsic clearance in human hepatocytes with and without MAO-A/B inhibitor combination (first experiment); conditions: for % change in half-life, MAO inhibitors vs no inhibitors / % change in intrinsic clearance, MAO inhibitors vs no inhibitors: human hepatocytes (Table 5)
# Protocol: Standard final incubation conditions are 1 μM compound in buffer containing nominally ˜0.5 million viable cells/mL, ˜0.9% (v/v) acetonitrile (MeCN) and ˜0.1% (v/v) DMSO (specific assay concentrations outlined above, section 2).
# Samples are then centrifuged at 4° C.
# [5] = Human liver mitochondrial fraction intrinsic clearance of SPL026 with/without MAO-A and MAO-B inhibitors; type: in vitro ADME
# Text: as §1
# CYP1A2 = molecular target: T1, CYP1A2 (Homo sapiens, UniProt P05177); test: in vitro; conditions: human, recombinant enzyme, pH 7.4
# T1 sequence (P05177 1-516): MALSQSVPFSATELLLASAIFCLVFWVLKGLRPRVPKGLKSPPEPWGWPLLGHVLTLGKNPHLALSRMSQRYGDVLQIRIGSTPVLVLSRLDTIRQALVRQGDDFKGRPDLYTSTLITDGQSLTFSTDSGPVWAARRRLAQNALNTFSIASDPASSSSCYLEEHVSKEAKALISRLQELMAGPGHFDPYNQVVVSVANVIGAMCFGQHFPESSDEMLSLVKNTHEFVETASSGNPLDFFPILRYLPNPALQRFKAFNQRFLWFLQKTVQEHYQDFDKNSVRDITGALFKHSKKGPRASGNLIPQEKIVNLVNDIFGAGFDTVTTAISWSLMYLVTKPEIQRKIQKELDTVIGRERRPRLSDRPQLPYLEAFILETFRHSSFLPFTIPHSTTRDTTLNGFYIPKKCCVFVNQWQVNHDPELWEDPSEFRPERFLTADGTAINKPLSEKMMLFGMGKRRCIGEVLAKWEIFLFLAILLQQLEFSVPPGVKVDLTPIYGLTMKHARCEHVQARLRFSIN
# Protocol: (§2) Samples were taken at predetermined time points.
# (§3) Samples were then centrifuged at −4° C.
# (§4) Positive control markers are as specified in Table 11.
# CYP2C9 = CYP2C9 (Homo sapiens, UniProt P11712); test: in vitro; conditions: human, recombinant enzyme, pH 7.4
# Sequence of CYP2C9 (P11712 whole entry): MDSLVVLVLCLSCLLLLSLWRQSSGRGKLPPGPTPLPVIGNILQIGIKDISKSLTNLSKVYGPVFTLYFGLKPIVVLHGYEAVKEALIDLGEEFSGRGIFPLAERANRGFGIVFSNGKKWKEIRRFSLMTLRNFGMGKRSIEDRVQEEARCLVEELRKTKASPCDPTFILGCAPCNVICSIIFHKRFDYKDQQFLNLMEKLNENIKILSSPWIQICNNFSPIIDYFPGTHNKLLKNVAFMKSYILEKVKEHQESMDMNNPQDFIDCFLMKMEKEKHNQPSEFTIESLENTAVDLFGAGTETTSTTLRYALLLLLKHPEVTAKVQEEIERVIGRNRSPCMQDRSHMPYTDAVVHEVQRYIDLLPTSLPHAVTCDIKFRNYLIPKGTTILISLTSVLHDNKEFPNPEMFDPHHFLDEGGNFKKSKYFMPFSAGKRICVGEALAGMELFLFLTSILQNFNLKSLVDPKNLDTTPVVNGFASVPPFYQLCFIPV
# Protocol: as §2, §3, §4
# CYP2C19 = CYP2C19 (Homo sapiens, UniProt P33261); test: in vitro; conditions: human, recombinant enzyme, pH 7.4
# Sequence of CYP2C19 (P33261 whole entry): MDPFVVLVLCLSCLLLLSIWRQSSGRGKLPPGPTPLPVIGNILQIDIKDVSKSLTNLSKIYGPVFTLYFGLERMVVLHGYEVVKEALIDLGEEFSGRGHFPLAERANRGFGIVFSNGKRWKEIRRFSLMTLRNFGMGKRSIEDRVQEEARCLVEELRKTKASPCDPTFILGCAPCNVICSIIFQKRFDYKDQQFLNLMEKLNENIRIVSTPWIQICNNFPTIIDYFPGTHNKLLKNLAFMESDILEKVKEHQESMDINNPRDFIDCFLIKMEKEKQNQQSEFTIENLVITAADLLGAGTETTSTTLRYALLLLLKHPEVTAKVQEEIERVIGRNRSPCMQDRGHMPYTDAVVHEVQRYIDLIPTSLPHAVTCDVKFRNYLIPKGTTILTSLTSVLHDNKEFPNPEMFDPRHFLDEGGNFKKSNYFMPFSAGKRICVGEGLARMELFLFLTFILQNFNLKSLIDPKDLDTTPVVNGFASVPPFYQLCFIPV
# Protocol: as §2, §3, §4
# CYP3A5 = CYP3A5 (Homo sapiens, UniProt P20815); test: in vitro; conditions: human, recombinant enzyme, pH 7.4
# Sequence of CYP3A5 (P20815 whole entry): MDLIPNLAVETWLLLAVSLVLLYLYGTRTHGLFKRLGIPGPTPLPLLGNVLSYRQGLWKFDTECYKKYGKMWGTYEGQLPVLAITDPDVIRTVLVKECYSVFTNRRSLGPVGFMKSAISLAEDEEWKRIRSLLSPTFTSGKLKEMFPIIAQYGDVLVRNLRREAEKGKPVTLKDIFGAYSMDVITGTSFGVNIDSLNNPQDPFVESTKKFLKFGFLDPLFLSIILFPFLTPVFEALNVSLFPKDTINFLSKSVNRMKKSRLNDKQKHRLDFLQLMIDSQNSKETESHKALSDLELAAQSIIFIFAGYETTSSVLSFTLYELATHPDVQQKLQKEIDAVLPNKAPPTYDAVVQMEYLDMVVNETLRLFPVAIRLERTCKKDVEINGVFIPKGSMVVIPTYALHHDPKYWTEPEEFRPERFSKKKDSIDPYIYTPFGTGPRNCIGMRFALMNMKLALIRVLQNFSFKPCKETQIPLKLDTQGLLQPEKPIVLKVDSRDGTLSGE
# Protocol: as §2, §3, §4
# CYP3A4 = CYP3A4 (Homo sapiens, UniProt P08684); test: in vitro; conditions: human, recombinant enzyme, pH 7.4
# Sequence of CYP3A4 (P08684 whole entry): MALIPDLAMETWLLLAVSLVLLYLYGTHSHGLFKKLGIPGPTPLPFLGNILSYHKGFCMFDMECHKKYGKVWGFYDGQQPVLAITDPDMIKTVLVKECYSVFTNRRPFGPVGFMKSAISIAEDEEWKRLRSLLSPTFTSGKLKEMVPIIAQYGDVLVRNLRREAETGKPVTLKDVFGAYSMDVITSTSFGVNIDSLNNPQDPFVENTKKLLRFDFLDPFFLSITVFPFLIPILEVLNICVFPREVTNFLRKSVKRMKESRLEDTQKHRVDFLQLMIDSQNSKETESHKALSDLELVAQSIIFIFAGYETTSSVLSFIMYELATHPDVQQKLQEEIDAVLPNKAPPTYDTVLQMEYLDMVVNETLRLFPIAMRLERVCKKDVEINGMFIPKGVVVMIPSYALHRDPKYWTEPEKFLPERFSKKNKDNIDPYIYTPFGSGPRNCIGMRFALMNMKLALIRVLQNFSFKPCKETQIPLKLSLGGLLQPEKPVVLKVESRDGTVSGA
# Protocol: as §2, §3, §4
# CYP2C8 = molecular target: T2, CYP2C8 (Homo sapiens, UniProt P10632); test: in vitro; conditions: human, recombinant enzyme, pH 7.4
# T2 sequence (P10632 1-490): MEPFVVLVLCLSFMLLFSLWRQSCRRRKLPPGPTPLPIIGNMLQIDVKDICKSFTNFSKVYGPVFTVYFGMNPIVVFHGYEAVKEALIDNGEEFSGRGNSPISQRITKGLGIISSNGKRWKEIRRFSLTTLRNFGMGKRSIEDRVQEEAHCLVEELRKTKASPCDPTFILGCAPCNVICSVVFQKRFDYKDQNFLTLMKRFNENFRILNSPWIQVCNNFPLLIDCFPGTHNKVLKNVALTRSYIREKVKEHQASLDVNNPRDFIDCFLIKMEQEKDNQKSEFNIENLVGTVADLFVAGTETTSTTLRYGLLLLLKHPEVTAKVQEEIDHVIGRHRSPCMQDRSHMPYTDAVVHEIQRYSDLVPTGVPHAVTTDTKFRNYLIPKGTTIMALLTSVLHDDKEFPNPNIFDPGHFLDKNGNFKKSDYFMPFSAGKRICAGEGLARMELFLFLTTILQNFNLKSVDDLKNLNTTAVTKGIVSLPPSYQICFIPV
# Protocol: as §2, §3, §4
# [6] = human hepatocytes, with 100 nM clorgyline + 100 nM deprenyl/selegiline (Table 3)
# [7] = human hepatocytes, with MAO-A/B inhibitor combination (Table 5)
# [8] = human hepatocytes, with MAO-A/B inhibitors (Table 4; unit given only in Table 5)
# [9] = human hepatocytes, without MAO-A/B inhibitor combination (Table 5)
# [10] = 0.5 mg/mL human liver mitochondrial fraction, DMSO Vehicle (no inhibitor)
# [11] = human hepatocytes, without MAO inhibitors (Table 4; unit given only in Table 5)
SMILES,half-life at 5 μM [1] [min],hepatocyte CLint at 5 μM [1] [µL/min/1e6 cells],Intrinsic Clearance [2] [μL/min/mg protein],w Half-life [3] [min],w Intrinsic clearance [3] [μL/min/million cells],"% change in half-life, MAO inhibitors vs no inhibitors [4] [%]","% change in intrinsic clearance, MAO inhibitors vs no inhibitors [4] [%]","Intrinsic clearance, with inhibitors [4, 6] [μL/min/million cells]","Intrinsic clearance, with inhibitors [4, 7] [μL/min/million cells]","Intrinsic clearance, without inhibitors [4, 9] [μL/min/million cells]",other results
"COc1ccc([C@@H]2Sc3ccccc3N(CCN(C)C)C(=O)[C@@H]2OC(C)=O)cc1 [Diltiazem, reference compound]",< 3,> 460,,,,,,,,,
"[2H]C([2H])([2H])N(C([2H])([2H])[2H])C([2H])([2H])Cc1c[nH]c2ccccc12 [SPL028viii, α,α,bis-deuterio-N,N-hexadeuterio-dimethyltryptamine]",,,10.9,,,,,,,,
"[2H]C([2H])(Cc1c[nH]c2ccccc12)N(C)C [SPL028iii, α,α,-bis-deuterium-N,N-dimethyltryptamine]",,,15.0,17.9,106.2,25.93,−35.65,6.90,6.9,9.36,"half-life [2]: 31.1 min; Half-life, with inhibitors [4, 7]: 189.6 min; Half-life, with inhibitors [4, 8]: 189.60 min"
"NCCc1c[nH]c2ccc(O)cc12 [Serotonin, reference compound]",22.8,83,151.0,,,73.75,−282.18,10.10,10.1,38.6,"half-life [5, 10]: 11.1 min; half-life ([5]; human liver mitochondrial fraction, Clorgyline (MAO-A inhibitor) 100 nM): >420.2 min; half-life [2]: 9.2 min; Half-life, without inhibitors [4, 11]: 33.00 min; Half-life, without inhibitors [4, 9]: 33 min"
"Nc1c2c(nc3ccccc13)CCCC2 [Tacrine, reference compound]",,,,,,,,,,,"half-life (CYP1A2): 37 min; intrinsic clearance, CYP isoform 1A2 (CYP1A2): 189 μL/min/nmol CYP"
"O=C(O)Cc1ccccc1Nc1c(Cl)cccc1Cl [Diclofenac, reference compound]",34.1,57.7,,,,,,,,,"half-life (CYP2C9): 1 min; intrinsic clearance, CYP isoform 2C9 (CYP2C9): 4731 μL/min/nmol CYP"
"CC(C)NCC(O)COc1cccc2ccccc12 (stereo not shown) [Propranolol, reference compound]",,,,,,,,,,,half-life (CYP2C19): 12 min
"Cc1ncc2n1-c1ccc(Cl)cc1C(c1ccccc1F)=NC2 [Midazolam, reference compound]",,,,,,,,,,,"half-life (CYP3A5): 11 min; intrinsic clearance, CYP isoform 3A5 (CYP3A5): 623 μL/min/nmol CYP; half-life (CYP3A4): 5 min; intrinsic clearance, CYP isoform 3A4 (CYP3A4): 1369 μL/min/nmol CYP"
"[2H]C([2H])(Cc1c[nH]c2ccccc12)N(C)C [SPL028v, α,α,-bis-deuterium-N,N-dimethyltryptamine]",,,,16.1,117.7,11.47,−15.56,9.51,9.51,10.99,
"[2H]C([2H])(Cc1c[nH]c2ccccc12)N(C)C [SPL028vi, α,α,-bis-deuterium-N,N-dimethyltryptamine]",,,,16.6,114.0,20.55,−26.41,10.79,10.79,13.64,"Half-life, without inhibitors [4, 11]: 95.04 min; Half-life, without inhibitors [4, 9]: 95.04 min"
"[2H]C([2H])(Cc1c[nH]c2ccccc12)N(C)C [SPL028iv, α,α,-bis-deuterium-N,N-dimethyltryptamine]",,,,17.7,106.9,31.74,−49.33,7.46,7.46,11.14,"change in intrinsic clearance with the inclusion of MAO inhibitors ([4]; human hepatocytes): 49%; Half-life, with inhibitors [4, 7]: 171.17 min; Half-life, with inhibitors [4, 8]: 171.17 min"
"NCc1ccccc1 [Benzylamine, reference compound]",14.3,134,60.0,,,>83.41,<−450,<3.0,<3.0,16.7,"half-life [5, 10]: 30.4 min; half-life ([5]; human liver mitochondrial fraction, Deprenyl (MAO-B inhibitor) 100 nM): >420.2 min; half-life [2]: 23.2 min; fold increase in intrinsic clearance, human liver mitochondria compared to hepatocyte fraction ([2]; positive controls): ~3.6 fold; Half-life, with inhibitors [4, 7]: 460 min; Half-life, with inhibitors [4, 8]: 460.00 min; Half-life, without inhibitors [4, 11]: 76.30 min; Half-life, without inhibitors [4, 9]: 76.3 min"
"CC(C)(O)c1ccccc1CC[C@@H](SCC1(CC(=O)O)CC1)c1cccc(/C=C/c2ccc3ccc(Cl)cc3n2)c1 [Montelukast, reference compound]",,,,,,,,,,,"half-life (CYP2C8): 62 min; intrinsic clearance, CYP isoform 2C8 (CYP2C8): 122 μL/min/nmol CYP"
